Results published in EP2216341A1, “Transferrin variants and conjugates” (Novozymes Biopharma UK Limited, priority 2009, dated 2010).

How the values were obtained:
[1] = target: T1, transferrin receptor 1 (TfR1) (Homo sapiens, UniProt P02786); assay: Transferrin receptor 1 binding by Surface Plasmon Resonance (SPR, Biacore); conditions: fluorescein conjugated sample
T1 construct: purchased AbD Serotec 9110-300
From the text: The receptor binding capability of the recombinant transferrin variants can be determined by Surface Plasmon Resonance (SPR) analysis. The binding activity of a transferrin sample to a transferrin receptor can be measured using surface plasmon resonance (SPR) a non-invasive optical technique in which the SPR response is a measure of change in mass concentration at the detector surface as molecules bind or dissociate. A sample is sent onto the surface of the sensor chip via a micro flow system at a constant flow rate. In this analysis, if the transferrin sample is able to bind to the Transferrin Receptor the mass on the surface sensor chip is increased due to binding between Transferrin Receptor and Transferrin molecules creating a surface plasmon wave, and a shift of the SPR signal proportional to the binding quantity can be detected as a change in the resonance unit (RU). […]
The binding capacity of human serum transferrin to human trabnsferrin receptor 1 may be measured by SPR. […]
The receptor binding capability of the recombinant transferrin variants was assessed by Surface Plasmon Resonance (SPR) analysis. The binding activity of a transferrin sample to transferrin receptor can be measured using surface plasmon resonance (SPR) a non-invasive optical technique in which the SPR response is a measure of change in mass concentration at the detector surface as molecules bind or dissociate. […]

[2] = system: K562 erythroleukemic cells; assay: 55Fe uptake from labeled diferric transferrin in erythroleukemic K562 cells; format: cell-based, human; conditions: 25 minutes at 37°C
Experimental: Human plasma-derived apo-transferrin (Calbiochem 616419, tissue culture grade, pyrogen-free) is supplied lyophilised from 10mM phosphate buffer, pH7.4. The transferrin mutein is expressed, purified and quantified as described above.
For iron-55 uptake from labeled diferric transferrin, K562 erythroleukemic cells, cultured in RPMI cell culture medium under standard conditions (bicarbonate-buffered, 5% (v/v) CO2, antibiotics, 10% (v/v) fetal calf serum) are washed with serum-free medium containing HEPES-buffer and 1 mg/ml of bovine serum albumin and used at a concentration of 10 million cells/ml in this medium. The samples tested are prepared as equimolar concentrations of apo-transferrin mutein. Apo-transferrin mutein is loaded with iron according to a standard procedure (Bates and Schlabach, J Biol Chem, 248, 3228-3232, 1973) using ferric nitrilotriacetate as iron source. Typically 50µl of 1 M NaClO4 is added to 450µl of the transferrin mutein stock-solution (pH is alkaline to neutral). The ^55Fe -NTA-loading-buffer is prepared by mixing 8.5µl 50mM NTA (pH 8.25), 18.9µl 0.1M Tris, 98.8µl Millipore-purified water and 7.5µl ^55FeCl3 in 0.5 N HCl (NEN products). 500µl of transferrin mutein is carefully mixed (dropwise) with the ^55Fe -NTA-loading-buffer and then 310µl of 5mM Hepes. NaOH/0.1M NaClO4 is added. The mixture is incubated at 4°C for 60 min following which it is deslated on a PD-10 column (containing Sephadex G-25) and dialysed. The PD-10 column is equilibrated with 5ml of equilibration buffer (5mM Hepes/NaOH, 0.1M NaClO4, 0.1 g BSA (Amresco)) then washed three times with 5ml of wash buffer (5mM Hepes/NaOH, 0.1M NaClO4). […]
Increasing concentrations of human plasma transferrin or the transferrin mutein sample (0, 25, 100, 200, 400, 800, 1600 nM), labeled with ^55Fe, are mixed with 25 µl of medium. […] The lysates are neutralized with 1 M HCl after overnight lysis, mixed with Readysolv Scintillation cocktail and counted in the Packard Liquid Scintillation Counter. […]

T1 sequence (P02786 whole entry): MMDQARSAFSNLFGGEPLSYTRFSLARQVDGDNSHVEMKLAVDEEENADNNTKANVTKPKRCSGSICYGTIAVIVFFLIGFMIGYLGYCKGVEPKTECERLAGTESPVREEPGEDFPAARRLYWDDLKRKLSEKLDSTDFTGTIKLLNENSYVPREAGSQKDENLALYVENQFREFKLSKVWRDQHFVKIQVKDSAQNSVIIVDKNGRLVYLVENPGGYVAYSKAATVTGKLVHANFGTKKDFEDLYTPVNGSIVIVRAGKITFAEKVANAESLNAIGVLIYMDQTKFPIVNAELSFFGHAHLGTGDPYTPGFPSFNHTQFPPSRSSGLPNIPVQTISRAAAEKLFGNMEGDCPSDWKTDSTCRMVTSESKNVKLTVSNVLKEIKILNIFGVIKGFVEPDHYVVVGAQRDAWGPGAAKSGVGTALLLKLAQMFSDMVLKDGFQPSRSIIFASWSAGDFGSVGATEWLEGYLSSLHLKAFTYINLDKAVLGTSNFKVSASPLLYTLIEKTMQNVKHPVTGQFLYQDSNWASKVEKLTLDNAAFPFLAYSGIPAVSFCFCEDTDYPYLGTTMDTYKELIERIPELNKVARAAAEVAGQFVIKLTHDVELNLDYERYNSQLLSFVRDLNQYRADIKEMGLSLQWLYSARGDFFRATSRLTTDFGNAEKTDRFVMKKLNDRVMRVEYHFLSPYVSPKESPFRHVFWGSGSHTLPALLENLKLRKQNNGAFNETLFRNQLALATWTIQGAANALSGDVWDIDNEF

Substance: Fluorescein conjugated thio-transferrin (S415C, T613A): thiotransferrin (S415C, T613A) conjugated with fluorescein
- ability to bind to transferrin receptor 1 (measured by SPR) [1]: able to bind to transferrin receptor 1 by SPR analysis in a manner equivalent to the unconjugated sample
- Specific iron ptake Bmax ([2]; 55Fe-labeled sample 0-1600 nM, specific uptake (unspecific binding with hundredfold excess unlabeled diferric transferrin accounted for)): 3246±217 fmol^55Fe/10^6 cells 25min
- Total Iron Uptake Bmax ([2]; 55Fe-labeled sample 0-1600 nM, total uptake): 4165±216 fmol^55Fe/10^6 cells x 25min
- Kd ([2]; specific uptake, read-out: Specific iron ptake Kd x): 189 ± 47 nM
